Test results: PubChem BioAssay (NCI)
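Each compound was tested at five concentrations against cells in 96-well plates for 48 hours. At the TGI there is no net growth.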

Tests used:
Assay in all cases: DTP human tumour cell line panel, 48 h
LOX IMVI melanoma = tested on: LOX IMVI melanoma
MALME-3M melanoma = tested on: MALME-3M melanoma
SNB-75 CNS = tested on: SNB-75 CNS
NCI-H460 lung = tested on: NCI-H460 lung
RXF 393 renal = tested on: RXF 393 renal
SW-620 colon = tested on: SW-620 colon
M14 melanoma = tested on: M14 melanoma
MDA-MB-231 breast = tested on: MDA-MB-231 breast
NCI-H226 lung = tested on: NCI-H226 lung
SK-MEL-5 melanoma = tested on: SK-MEL-5 melanoma
MDA-N = tested on: MDA-N
HCT-15 colon = tested on: HCT-15 colon
COLO 205 colon = tested on: COLO 205 colon
PC-3 prostate = tested on: PC-3 prostate
NCI/ADR-RES ovarian = tested on: NCI/ADR-RES ovarian
A549 NSCLC = tested on: A549 NSCLC
OVCAR-5 ovarian = tested on: OVCAR-5 ovarian
SF-295 CNS = tested on: SF-295 CNS
786-0 renal = tested on: 786-0 renal
CAKI-1 renal = tested on: CAKI-1 renal
NCI-H23 lung = tested on: NCI-H23 lung
SK-OV-3 ovarian = tested on: SK-OV-3 ovarian
SNB-19 CNS = tested on: SNB-19 CNS
SF-268 CNS = tested on: SF-268 CNS
RPMI-8226 leukemia = tested on: RPMI-8226 leukemia
CCRF-CEM leukemia = tested on: CCRF-CEM leukemia
A498 renal = tested on: A498 renal
DU-145 prostate = tested on: DU-145 prostate
BT-549 breast = tested on: BT-549 breast
MCF7 breast = tested on: MCF7 breast
UO-31 renal = tested on: UO-31 renal
HL-60(TB) leukemia = tested on: HL-60(TB) leukemia
MDA-MB-435 = tested on: MDA-MB-435
OVCAR-4 ovarian = tested on: OVCAR-4 ovarian
HS 578T breast = tested on: HS 578T breast
HOP-92 NSCLC = tested on: HOP-92 NSCLC
EKVX NSCLC = tested on: EKVX NSCLC
UACC-257 melanoma = tested on: UACC-257 melanoma
SF-539 CNS = tested on: SF-539 CNS
SR leukemia = tested on: SR leukemia
SN12C renal = tested on: SN12C renal
KM12 colon = tested on: KM12 colon
U251 CNS = tested on: U251 CNS
K-562 leukemia = tested on: K-562 leukemia
IGROV1 ovarian = tested on: IGROV1 ovarian
SK-MEL-2 melanoma = tested on: SK-MEL-2 melanoma
T-47D breast = tested on: T-47D breast
TK-10 renal = tested on: TK-10 renal
HT29 colon = tested on: HT29 colon
HCT-116 colon = tested on: HCT-116 colon
ACHN renal = tested on: ACHN renal
OVCAR-3 ovarian = tested on: OVCAR-3 ovarian
OVCAR-8 ovarian = tested on: OVCAR-8 ovarian
HOP-62 NSCLC = tested on: HOP-62 NSCLC
NCI-H522 lung = tested on: NCI-H522 lung
MOLT-4 leukemia = tested on: MOLT-4 leukemia
SK-MEL-28 melanoma = tested on: SK-MEL-28 melanoma
HCC-2998 colon = tested on: HCC-2998 colon
UACC-62 melanoma = tested on: UACC-62 melanoma

COC(=O)C1=C(C)NC(C)=C(C(=O)OC)C1c1ccc(NO)cc1
TGI (LOX IMVI melanoma): 12.9 µM | TGI (MALME-3M melanoma): 25.8 µM | TGI (SNB-75 CNS): 45.8 µM | TGI (NCI-H460 lung): 33.9 µM | TGI (RXF 393 renal): 36 µM | TGI (SW-620 colon): 19.8 µM | TGI (M14 melanoma): 27.9 µM | TGI (MDA-MB-231 breast): 26.6 µM | TGI (NCI-H226 lung): 47.1 µM | TGI (SK-MEL-5 melanoma): 30.1 µM | TGI (MDA-N): 24.7 µM | TGI (HCT-15 colon): 26.5 µM | TGI (COLO 205 colon): 29.2 µM | TGI (PC-3 prostate): 26.3 µM | TGI (NCI/ADR-RES ovarian): 48.5 µM | TGI (A549 NSCLC): 43.5 µM | TGI (OVCAR-5 ovarian): 29.8 µM | TGI (SF-295 CNS): 33.1 µM | TGI (786-0 renal): 28.9 µM | TGI (CAKI-1 renal): 29.1 µM | TGI (NCI-H23 lung): 49.8 µM | TGI (SK-OV-3 ovarian): 50.3 µM | TGI (SNB-19 CNS): > 78.8 µM | TGI (SF-268 CNS): 43.1 µM | TGI (RPMI-8226 leukemia): 16.4 µM | TGI (CCRF-CEM leukemia): > 27.3 µM | TGI (A498 renal): 93.8 µM | TGI (DU-145 prostate): 35.8 µM | TGI (BT-549 breast): 26.5 µM | TGI (MCF7 breast): 19.2 µM | TGI (UO-31 renal): 23.5 µM | TGI (HL-60(TB) leukemia): > 20.2 µM | TGI (MDA-MB-435): 28.7 µM | TGI (OVCAR-4 ovarian): 25 µM | TGI (HS 578T breast): 47.3 µM | TGI (HOP-92 NSCLC): 12.7 µM | TGI (EKVX NSCLC): 47.4 µM | TGI (UACC-257 melanoma): 15.7 µM | TGI (SF-539 CNS): 29.6 µM | TGI (SR leukemia): > 20.4 µM | TGI (SN12C renal): 33.6 µM | TGI (KM12 colon): 31.6 µM | TGI (U251 CNS): 29.9 µM | TGI (K-562 leukemia): 8.07 µM | TGI (IGROV1 ovarian): 30.9 µM | TGI (SK-MEL-2 melanoma): 34.2 µM | TGI (T-47D breast): 32.7 µM | TGI (TK-10 renal): 30.9 µM | TGI (HT29 colon): 29.8 µM | TGI (HCT-116 colon): 21.8 µM | TGI (ACHN renal): 25.8 µM | TGI (OVCAR-3 ovarian): 26.7 µM | TGI (OVCAR-8 ovarian): 24.7 µM | TGI (HOP-62 NSCLC): 32.9 µM | TGI (NCI-H522 lung): 12.2 µM | TGI (MOLT-4 leukemia): > 22.4 µM | TGI (SK-MEL-28 melanoma): 34.1 µM | TGI (HCC-2998 colon): 35.1 µM | TGI (UACC-62 melanoma): 26.8 µM

Cc1ccc2nc(C=Nc3ccccc3Cl)cc(C)c2c1
TGI (LOX IMVI melanoma): 22.6 µM | TGI (MALME-3M melanoma): 61.9 µM | TGI (SNB-75 CNS): 56.2 µM | TGI (NCI-H460 lung): 38.6 µM | TGI (RXF 393 renal): 29.6 µM | TGI (SW-620 colon): 28.5 µM | TGI (M14 melanoma): 35.1 µM | TGI (MDA-MB-231 breast): 35.6 µM | TGI (NCI-H226 lung): 48.8 µM | TGI (SK-MEL-5 melanoma): 29.5 µM | TGI (MDA-N): 23.8 µM | TGI (HCT-15 colon): 38.1 µM | TGI (COLO 205 colon): > 100 µM | TGI (PC-3 prostate): > 100 µM | TGI (NCI/ADR-RES ovarian): 40.2 µM | TGI (A549 NSCLC): > 100 µM | TGI (OVCAR-5 ovarian): > 100 µM | TGI (SF-295 CNS): 47.2 µM | TGI (786-0 renal): 33.2 µM | TGI (CAKI-1 renal): > 100 µM | TGI (NCI-H23 lung): 46.4 µM | TGI (SK-OV-3 ovarian): > 100 µM | TGI (SNB-19 CNS): > 100 µM | TGI (SF-268 CNS): 40 µM | TGI (RPMI-8226 leukemia): > 100 µM | TGI (CCRF-CEM leukemia): 52.8 µM | TGI (A498 renal): > 100 µM | TGI (DU-145 prostate): > 100 µM | TGI (BT-549 breast): 30.1 µM | TGI (MCF7 breast): 46.8 µM | TGI (UO-31 renal): 35.5 µM | TGI (HL-60(TB) leukemia): 18.4 µM | TGI (MDA-MB-435): 28.5 µM | TGI (OVCAR-4 ovarian): 92.9 µM | TGI (HS 578T breast): 81.2 µM | TGI (HOP-92 NSCLC): 83 µM | TGI (EKVX NSCLC): > 100 µM | TGI (UACC-257 melanoma): 30.6 µM | TGI (SF-539 CNS): 33.7 µM | TGI (SR leukemia): 26.6 µM | TGI (SN12C renal): 28.6 µM | TGI (KM12 colon): 35.9 µM | TGI (U251 CNS): 37.7 µM | TGI (K-562 leukemia): > 100 µM | TGI (IGROV1 ovarian): 36.7 µM | TGI (SK-MEL-2 melanoma): > 100 µM | TGI (T-47D breast): 47.4 µM | TGI (TK-10 renal): 98.7 µM | TGI (HT29 colon): 36.8 µM | TGI (HCT-116 colon): 16.3 µM | TGI (ACHN renal): > 100 µM | TGI (OVCAR-3 ovarian): 35.4 µM | TGI (OVCAR-8 ovarian): 29.9 µM | TGI (HOP-62 NSCLC): > 100 µM | TGI (NCI-H522 lung): 47.2 µM | TGI (MOLT-4 leukemia): 35.1 µM | TGI (SK-MEL-28 melanoma): 42 µM | TGI (HCC-2998 colon): > 100 µM | TGI (UACC-62 melanoma): 30.4 µM
